Reference: US8846697B2, “Purine analogs” (The Regents of the University of California, priority 2006, dated 2014)
“Also recorded” adds a separate entry of the source.

System: human PBMC
Assay: Interferon α induction in human PBMC (Luminex, Beadlyte Human MultiCytokine kit)
Type: cell-based
Set-up: key to IFN-α (Interferon concentration): b: Below lower limit of detection
Settings: for interferon inducing activity (in words) / IFN-α (Interferon concentration) / EC50: human PBMC; for interferon inducing activity (in words): 1 μM; for IFN-α (Interferon concentration): all compounds tested at 1 μM, averages from four donors; for IFN-α (Interferon concentration) / EC50: 24 hr; for EC50: 10 μM to 10 nM, composited from three donors, read-out: EC50 (concentration at which 50% of the maximal IFN concentration was achieved)
Description: Reaction of 8-bromo compound 5 with NaN3 followed by Raney-Ni catalyzed hydrogenation furnished compound 6 in good yield. Acylation of compound 6 with ethylchloroformate led to the ethylcarbamate, compound 27, which was converted to the ureido compound 28 by reaction with methanolic ammonia. All compounds were tested for their ability to induce the production of interferon α in human PBMC compared to compound 4 as a positive control. Human blood samples were obtained from the San Diego Blood Bank. Peripheral blood mononuclear cells (PBMC) were isolated by density-gradient centrifugation over Ficoll-Hypaque (Amersham Pharmacia). Cells were resuspended in RPMI 1640 medium, supplemented with 10% fetal bovine serum (FBS), L-glutamine, and penicillin/streptomycin (RP10; Invitrogen, Carlsbad, Calif.), plated at 10^6 cells/well in 96-well plates, and stimulated with compounds at 1 μM final concentration for 24 hr. at 37° C., 5% CO2. The IFN-α level in the supernatants was measured by Luminex (Austin, Tex.) using the Beadlyte Human MultiCytokine kit (Upstate, Charlottesville, Va.), according to the manufacturer's instructions. Results presented in Table 2 are averages of data composited from four different donors. […] Detailed analytical data for these compounds is as follows:
For this dose response study, cells were treated with the listed compounds at concentrations ranging from 10 μM to 10 nM for 24 hr. The data shown in Table 3 are composited from three different donors, and a non-linear regression curve fit analysis was performed using GraphPad Prism software version 4.0b (San Diego, Calif.) to determine the EC50.

Compound	interferon inducing activity (in words)	IFN-α (Interferon concentration)	EC50	EC50 (in words) (interferon induction in human PBMC)	interferon inducing activity (in words) (listed as hydroxypropyl)
COCCOc1nc(N)c2nc(NCCCCO)n(Cc3ccccc3)c2n1 [Compound 15]	devoid of activity	b			
COCCOc1nc(N)c2nc(NCCCN(CCO)CCO)n(Cc3ccccc3)c2n1 [Compound 23]		b			
COCCOc1nc(N)c2nc(NCC3CCCO3)n(Cc3ccccc3)c2n1 (stereo not drawn) [Compound 16]		b			
COCCOc1nc(N)c2nc(NCCN(CCO)CCO)n(Cc3ccccc3)c2n1 [Compound 22]		b			
CCCNc1nc2c(N)nc(OCCOC)nc2n1Cc1ccccc1 [Compound 9]		8.80 pg/mL			
CCOC(=O)Nc1nc2c(N)nc(OCCOC)nc2n1Cc1ccccc1 [Compound 27]		1.03 pg/mL			
COCCOc1nc(N)c2nc(N)n(Cc3ccccc3)c2n1 [Compound 6]	completely removed all interferon inducing activity	35.25 pg/mL	> 10 µM		
COCCOc1nc(N)c2nc(N(CCO)CCO)n(Cc3ccccc3)c2n1 [Compound 13]	abrogated activity	0.82 pg/mL			
COCCOc1nc(N)c2nc(NCCc3ccccc3)n(Cc3ccccc3)c2n1 [Compound 18]	not active	1.33 pg/mL			
CCN(CC)c1nc2c(N)nc(OCCOC)nc2n1Cc1ccccc1 [Compound 11]	activity is lost	b			
COCCOc1nc(N)c2nc(NN)n(Cc3ccccc3)c2n1 [Compound 29]		0.21 pg/mL			
COCCOc1nc(N)c2nc(NC(N)=O)n(Cc3ccccc3)c2n1 [Compound 28]		b			
CNc1nc2c(N)nc(OCCOC)nc2n1Cc1ccccc1 [Compound 7]		b			
COCCOc1nc(N)c2nc(NCCN3CCCCC3)n(Cc3ccccc3)c2n1 [Compound 20]	not active	b			
COCCOc1nc(N)c2nc(NCCN3CCOCC3)n(Cc3ccccc3)c2n1 [Compound 19]	most active; also recorded: highest activity	110.48 pg/mL	0.79 µM	submicromolar range	
CCCCNc1nc2c(N)nc(OCCOC)nc2n1Cc1ccccc1 [Compound 10]		0.73 pg/mL			
COCCOc1nc(N)c2nc(NCC3CCCCC3)n(Cc3ccccc3)c2n1 [Compound 24]		b			
COCCOc1nc(N)c2nc(N3CCOCC3)n(Cc3ccccc3)c2n1 [Compound 25]	not active	0.41 pg/mL			
COCCOc1nc(N)c2nc(NCCCO)n(Cc3ccccc3)c2n1 [Compound 14]	most active	113.18 pg/mL	3.2 µM		about equally active
COCCOc1nc(N)c2nc(NCCc3c[nH]c4ccccc34)n(Cc3ccccc3)c2n1 [Compound 26]	not active	b			
COCCOc1nc(N)c2nc(NCc3ccccc3)n(Cc3ccccc3)c2n1 [Compound 17]		b			
COCCOc1nc(N)c2[nH]c(=O)n(Cc3ccccc3)c2n1 [Compound 4, 9-benzyl-2-methoxyethoxy-8-oxoadenine, reference compound]		418.00 pg/mL	0.14 µM		
COCCNc1nc2c(N)nc(OCCOC)nc2n1Cc1ccccc1 [Compound 21]		b			
COCCOc1nc(N)c2nc(NCCO)n(Cc3ccccc3)c2n1 [Compound 12]	most active; also recorded: activity was enhanced somewhat	99.21 pg/mL	5.33 µM		
CCNc1nc2c(N)nc(OCCOC)nc2n1Cc1ccccc1 [Compound 8]	most active; also recorded: superior to the others	80.30 pg/mL	4.42 µM		
